Molecular target: CD73 (Homo sapiens (Human), UniProt P21589)
Test: Biochemical assay: inhibition of CD73 activity (AMP hydrolysis, Malachite Green readout)
Details: CD73 0.3208 nM, AMP 15 μM, 25 mM Tris-HCl pH 7.4, RT, absorbance 620 nm
Outline: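 Phosphate from AMP hydrolysis (15 μM AMP, 10 min, RT) was detected by Malachite Green absorbance to give IC50s. Enzyme at 320 pM was first exposed 15 min to compounds, dosed from 100 μM in ½-log steps, in Tris pH 7.4 buffer with MgCl2, Brij-35 and BSA.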

CD73, sequence (P21589 27-574): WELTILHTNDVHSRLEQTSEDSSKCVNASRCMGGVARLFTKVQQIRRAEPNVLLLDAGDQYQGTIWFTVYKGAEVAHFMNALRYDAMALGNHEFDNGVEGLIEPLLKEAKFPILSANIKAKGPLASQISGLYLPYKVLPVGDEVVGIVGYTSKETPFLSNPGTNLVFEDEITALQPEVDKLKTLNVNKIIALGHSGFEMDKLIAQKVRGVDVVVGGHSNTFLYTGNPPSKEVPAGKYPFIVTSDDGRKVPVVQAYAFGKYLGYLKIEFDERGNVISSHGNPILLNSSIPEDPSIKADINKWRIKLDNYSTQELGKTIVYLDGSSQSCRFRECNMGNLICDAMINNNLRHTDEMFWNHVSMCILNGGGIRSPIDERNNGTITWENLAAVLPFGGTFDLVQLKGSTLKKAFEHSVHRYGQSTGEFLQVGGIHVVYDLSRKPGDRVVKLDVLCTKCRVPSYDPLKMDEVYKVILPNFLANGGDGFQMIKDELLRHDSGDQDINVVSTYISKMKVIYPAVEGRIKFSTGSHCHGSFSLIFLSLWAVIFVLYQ

| IC50 | Compound |
| --- | --- |
| ≤ 100 nM | O=C(O)COCC(CO)(OC[C@H]1O[C@@H](n2ncc3c(NC4CCCC4)nc(Cl)nc32)[C@H](O)[C@@H]1O)P(=O)(O)O (mixture of isomers) [Example 198, rac-2-(2-(((2R,3S,4R,5R)-5-(6-chloro-4-(cyclopentylamino)-1H-pyrazolo[3,4-d]pyrimidin-1-yl)-3,4-dihydroxytetrahydrofuran-2-yl)methoxy)-3-hydroxy-2-phosphonopropoxy)acetic acid] |
| ≤ 100 nM | O=P(O)(O)[C@@](CO)(Cc1nn[nH]n1)OC[C@H]1O[C@@H](n2ncc3c(NC4CCCC4)nc(Cl)nc32)[C@H](O)[C@@H]1O [Example 104, ((R)-2-(((2R,3S,4R,5R)-5-(6-chloro-4-(cyclopentylamino)-1H-pyrazolo[3,4-d]pyrimidin-1-yl)-3,4-dihydroxytetrahydrofuran-2-yl)methoxy)-1-hydroxy-3-(2H-tetrazol-5-yl)propan-2-yl)phosphonic acid] |
| 100 to 1000 nM | O=C(c1ccccc1)C(OC[C@H]1O[C@@H](n2ncc3c(NC4CCCC4)nc(Cl)nc32)[C@H](O)[C@@H]1O)P(=O)(O)O (stereo partly drawn) [Example 41, (1-(((2R,3S,4R,5R)-5-(6-chloro-4-(cyclopentylamino)-1H-pyrazolo[3,4-d]pyrimidin-1-yl)-3,4-dihydroxytetrahydrofuran-2-yl)methoxy)-2-oxo-2-phenylethyl)phosphonic acid] |
| ≤ 100 nM | CC#CC[C@@](CO)(OC[C@H]1O[C@@H](n2ncc3c(NC4CCCC4)nc(Cl)nc32)[C@H](O)[C@@H]1O)P(=O)(O)O [Example 97, ((R)-2-(((2R,3S,4R,5R)-5-(6-chloro-4-(cyclopentylamino)-1H-pyrazolo[3,4-d]pyrimidin-1-yl)-3,4-dihydroxytetrahydrofuran-2-yl)methoxy)-1-hydroxyhex-4-yn-2-yl)phosphonic acid] |
| ≤ 100 nM | C[C@@](CO)(OC[C@H]1O[C@@H](n2ncc3c(N[C@@H]4CC[C@H]5CCC[C@H]54)nc(Cl)nc32)[C@H](O)[C@@H]1O)P(=O)(O)O (racemic) [Example 182, rac-((R)-2-(((2R,3S,4R,5R)-5-(6-chloro-4-(((1R,3aR,6aR)-octahydropentalen1-yl)amino)-1H-pyrazolo[3,4-d]pyrimidin-1-yl)-3,4-dihydroxytetrahydrofuran-2-yl)methoxy)-1-hydroxypropan-2-yl)phosphonic acid] |
| ≤ 100 nM | C[C@](CO)(OC[C@H]1O[C@@H](n2ncc3c(N[C@@H]4CC[C@H]5CCC[C@H]54)nc(Cl)nc32)[C@H](O)[C@@H]1O)P(=O)(O)O (racemic) [Example 173, rac-((R)-2-(((2S,3R,4S,5S)-5-(6-chloro-4-(((1S,3aS,6aS)-octahydropentalen-1-yl)amino)-1H-pyrazolo[3,4-d]pyrimidin-1-yl)-3,4-dihydroxytetrahydrofuran-2-yl)methoxy)-1-hydroxypropan-2-yl)phosphonic acid] |
| ≤ 100 nM | O=P(O)(O)[C@](CO)(COCc1ccccc1)OC[C@H]1O[C@@H](n2ncc3c(NC4CCCC4)nc(Cl)nc32)[C@H](O)[C@@H]1O (racemic) [Example 179, rac-((R)-1-(benzyloxy)-2-(((2R,3S,4R,5R)-5-(6-chloro-4-(cyclopentylamino)-1H-pyrazolo[3,4-d]pyrimidin-1-yl)-3,4-dihydroxytetrahydrofuran-2-yl)methoxy)-3-hydroxypropan-2-yl)phosphonic acid] |
| 100 to 1000 nM | COCC(C)(OC[C@@H]1C[C@@H](O)[C@H](n2ncc3c(NC4CCCC4)nc(Cl)nc32)O1)P(=O)(O)O (stereo partly drawn) [Example 70, (2-(((2S,4R,5R)-5-(6-chloro-4-(cyclopentylamino)-1H-pyrazolo[3,4-d]pyrimidin-1-yl)-4-hydroxytetrahydrofuran-2-yl)methoxy)-1-methoxypropan-2-yl)phosphonic acid] |
| ≤ 100 nM | O=P(O)(O)C(CO)(CO)OC[C@H]1O[C@@H](n2ncc3c(NC4CCCC4)nc(Cl)nc32)[C@H](O)[C@@H]1O [Example 86, [1-[[(2R,3S,4R,5R)-5-[6-Chloro-4-(cyclopentylamino)pyrazolo[3,4-d]pyrimidin-1-yl]-3,4-dihydroxy-tetrahydrofuran-2-yl]methoxy]-2-hydroxy-1-(hydroxymethyl)ethyl]phosphonic acid] |
| ≤ 100 nM | CC(CO)(OC[C@H]1O[C@@H](n2ncc3c(NC4CCC4)nc(Cl)nc32)[C@H](O)[C@@H]1O)P(=O)(O)O (stereo partly drawn) [Example 130, (2-(((2R,3S,4R,5R)-5-(6-chloro-4-(cyclobutylamino)-1H-pyrazolo[3,4-d]pyrimidin-1-yl)-3,4-dihydroxytetrahydrofuran-2-yl)methoxy)-1-hydroxypropan-2-yl)phosphonic acid] |
| ≤ 100 nM | O=P(O)(O)[C@](CO)(Cc1ncco1)OC[C@H]1O[C@@H](n2ncc3c(NC4CCCC4)nc(Cl)nc32)[C@H](O)[C@@H]1O [Example 92, ((S)-2-(((2R,3S,4R,5R)-5-(6-chloro-4-(cyclopentylamino)-1H-pyrazolo[3,4-d]pyrimidin-1-yl)-3,4-dihydroxytetrahydrofuran-2-yl)methoxy)-1-hydroxy-3-(oxazol-2-yl)propan-2-yl)phosphonic acid] |
| ≤ 100 nM | COCC(C)(OC[C@H]1O[C@@H](n2ncc3c(NC4CCC4)nc(Cl)nc32)[C@H](O)[C@@H]1O)P(=O)(O)O (stereo partly drawn) [Example 159, (2-(((2R,3S,4R,5R)-5-(6-chloro-4-(cyclobutylamino)-1H-pyrazolo[3,4-d]pyrimidin-1-yl)-3,4-dihydroxytetrahydrofuran-2-yl)methoxy)-1-methoxypropan-2-yl)phosphonic acid] |
| ≤ 100 nM | O=P(O)(O)[C@H](CO)OC[C@H]1O[C@@H](n2nnc3c(NC4CCCC4)cc(Cl)nc32)[C@H](O)[C@@H]1O [Example 144, ((R)-1-(((2R,3S,4R,5R)-5-(5-chloro-7-(cyclopentylamino)-3H-[1,2,3]triazolo[4,5-b]pyridin-3-yl)-3,4-dihydroxytetrahydrofuran-2-yl)methoxy)-2-hydroxyethyl)phosphonic acid] |
